Here are results for 23 compounds from ChEMBL document CHEMBL1909046, “DrugMatrix in vitro pharmacology data”.

The IC50 is the midpoint of a concentration-inhibition curve. A word on the Ki: it is a measure of affinity in units of concentration, obtained from inhibition or displacement.

The target in assay [1] is Receptor tyrosine-protein kinase erbB-2 (Homo sapiens, UniProt P04626). The assay can be described thus: biochemical. The assay is classed as cell-based, Insect cells. As to conditions: insect cells.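 Further: inhibition of HER2 kinase enzyme activity, measured with Poly(Glu:Tyr) as the phosphorylation substrate; in other assays of this panel Not Active means under 50% inhibition at 10 µM.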
For assay [2], the target named is Beta-2 adrenergic receptor (Homo sapiens, UniProt P07550). The assay can be described thus: DRUGMATRIX: Adrenergic beta2 radioligand binding (ligand: [3H] CGP-12177). As to conditions: Not Active = under 50% inhibition at 10 µM. It counts as cell membranes, CHO, Membrane.
Assay [3] has as its target T1, Polyunsaturated fatty acid lipoxygenase ALOX15 (Oryctolagus cuniculus, UniProt P12530).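 Further: inhibition of 15-lipoxygenase enzyme activity measured with linoleic acid as the substrate; in other assays of this panel Not Active means under 50% inhibition at 10 µM.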
T1 sequence (P12530 whole entry): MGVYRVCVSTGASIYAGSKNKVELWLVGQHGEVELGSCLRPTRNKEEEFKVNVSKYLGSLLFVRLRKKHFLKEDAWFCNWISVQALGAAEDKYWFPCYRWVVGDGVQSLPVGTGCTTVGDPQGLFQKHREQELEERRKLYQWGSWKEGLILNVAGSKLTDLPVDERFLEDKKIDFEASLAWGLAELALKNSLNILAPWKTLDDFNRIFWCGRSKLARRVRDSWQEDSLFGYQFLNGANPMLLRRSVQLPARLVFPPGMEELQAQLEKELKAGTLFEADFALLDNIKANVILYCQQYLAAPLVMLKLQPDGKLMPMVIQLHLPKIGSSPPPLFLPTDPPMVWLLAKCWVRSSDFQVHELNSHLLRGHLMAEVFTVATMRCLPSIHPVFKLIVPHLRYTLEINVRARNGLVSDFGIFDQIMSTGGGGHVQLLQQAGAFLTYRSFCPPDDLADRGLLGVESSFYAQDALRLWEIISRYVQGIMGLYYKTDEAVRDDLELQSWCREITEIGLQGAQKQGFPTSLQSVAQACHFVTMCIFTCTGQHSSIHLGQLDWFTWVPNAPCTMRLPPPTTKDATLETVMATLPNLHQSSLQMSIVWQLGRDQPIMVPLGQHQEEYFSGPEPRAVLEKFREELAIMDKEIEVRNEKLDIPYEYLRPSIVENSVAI
The assay can be described thus: biochemical. As to conditions: reticulocytes. The assay is classed as tissue-based, Reticulocytes.

Assay [4] deals with T2, 5-hydroxytryptamine receptor 1A (Rattus norvegicus, UniProt P19327).
T2 sequence (P19327 whole entry): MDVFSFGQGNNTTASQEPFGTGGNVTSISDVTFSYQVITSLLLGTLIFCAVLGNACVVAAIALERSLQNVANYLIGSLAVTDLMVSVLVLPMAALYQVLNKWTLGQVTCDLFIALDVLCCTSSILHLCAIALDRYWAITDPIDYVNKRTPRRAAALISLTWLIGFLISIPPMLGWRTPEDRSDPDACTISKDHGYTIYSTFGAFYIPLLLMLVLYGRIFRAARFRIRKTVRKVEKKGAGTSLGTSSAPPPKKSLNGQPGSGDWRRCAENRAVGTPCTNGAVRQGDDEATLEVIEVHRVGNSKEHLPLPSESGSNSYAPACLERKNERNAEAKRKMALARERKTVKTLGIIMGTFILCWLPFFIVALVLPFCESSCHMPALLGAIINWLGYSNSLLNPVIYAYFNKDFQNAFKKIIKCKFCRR
The assay is classed as cell membranes, CHO-K1, Membrane.

For assay [5], the target named is 5-hydroxytryptamine receptor 2B (Homo sapiens, UniProt P41595). It counts as cell membranes, CHO-K1, Membrane. Further: in other assays of this panel Not Active means under 50% inhibition at 10 µM.
Sequence of 5-hydroxytryptamine receptor 2B (P41595 whole entry): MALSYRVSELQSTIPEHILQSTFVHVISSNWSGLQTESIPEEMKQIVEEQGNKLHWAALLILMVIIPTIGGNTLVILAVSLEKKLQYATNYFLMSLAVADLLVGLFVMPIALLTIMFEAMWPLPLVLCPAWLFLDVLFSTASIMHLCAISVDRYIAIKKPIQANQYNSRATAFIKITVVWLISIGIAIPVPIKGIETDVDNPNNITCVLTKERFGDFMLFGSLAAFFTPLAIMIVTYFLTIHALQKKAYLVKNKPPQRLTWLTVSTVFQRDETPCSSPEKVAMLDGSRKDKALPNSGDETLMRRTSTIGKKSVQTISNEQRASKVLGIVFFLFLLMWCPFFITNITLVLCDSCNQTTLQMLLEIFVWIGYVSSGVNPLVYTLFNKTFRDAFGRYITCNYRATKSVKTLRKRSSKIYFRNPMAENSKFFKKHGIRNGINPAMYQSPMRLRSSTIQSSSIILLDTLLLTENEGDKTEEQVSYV
Assay [6] concerns the target Melanocortin receptor 3 (Homo sapiens, UniProt P41968). It counts as cell membranes, HEK293, Membrane. As to conditions: hek293. Further: in other assays of this panel Not Active means under 50% inhibition at 10 µM.

Sequence of Melanocortin receptor 3 (P41968 whole entry): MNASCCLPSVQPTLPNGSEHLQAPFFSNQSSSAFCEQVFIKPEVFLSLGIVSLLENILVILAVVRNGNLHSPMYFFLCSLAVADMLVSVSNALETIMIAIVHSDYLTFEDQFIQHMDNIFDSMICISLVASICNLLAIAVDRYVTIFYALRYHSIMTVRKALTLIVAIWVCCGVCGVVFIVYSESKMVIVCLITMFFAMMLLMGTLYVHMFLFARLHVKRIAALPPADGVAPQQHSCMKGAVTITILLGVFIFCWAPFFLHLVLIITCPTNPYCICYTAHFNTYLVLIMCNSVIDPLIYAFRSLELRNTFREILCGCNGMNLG

`Cn1c(=O)c2[nH]cnc2n(C)c1=O.Cn1c(=O)c2[nH]cnc2n(C)c1=O.NCCN` [AMINOPHYLLINE]: the IC50 result in assay [1], in assay [2] (cho), in assay [3], in assay [4] (cho-k1), in assay [5] (cho-k1) and in assay [6] was “Not Active” throughout.
Turning to `C[C@H]1O[C@@H](n2cc(F)c(=O)[nH]c2=O)[C@H](O)[C@@H]1O` [DOXIFLURIDINE], the IC50 entry in assay [1], in assay [2] (cho), in assay [3], in assay [4] (cho-k1), in assay [5] (cho-k1) and in assay [6] was “Not Active” in each case.
Turning to `CC(C(=O)O)c1ccc2oc(-c3ccc(Cl)cc3)nc2c1` (centres undefined) [BENOXAPROFEN], the IC50 entry in assay [1], in assay [2] (cho), in assay [3], in assay [4] (cho-k1), in assay [5] (cho-k1) and in assay [6] was “Not Active” in each case.
`C#C[C@]1(OC(C)=O)CC[C@H]2[C@@H]3CCC4=C[C@@H](OC(C)=O)CC[C@@H]4[C@H]3CC[C@@]21C` [ETHYNODIOL DIACETATE]: the IC50 result in assay [1], in assay [2] (cho), in assay [3], in assay [4] (cho-k1), in assay [5] (cho-k1) and in assay [6] was “Not Active” throughout.
With `CCC(=O)O[C@]1(C(=O)CCl)[C@@H](C)C[C@H]2[C@@H]3CCC4=CC(=O)C=C[C@]4(C)[C@@]3(F)[C@@H](O)C[C@@]21C` [CLOBETASOL PROPIONATE], the IC50 entry in assay [1], in assay [2] (cho), in assay [3], in assay [4] (cho-k1), in assay [5] (cho-k1) and in assay [6] was “Not Active” throughout.
In the case of `C[C@@H](CO)NC(=O)[C@@H]1C=C2c3cccc4[nH]cc(c34)C[C@H]2N(C)C1` [ERGONOVINE], the IC50 result is “Not Active” in assay [1]; “Not Active” in assay [2] (cho); “Not Active” in assay [3]; 0.00813 µM in assay [4] (read-out: IC50); 0.00414 µM in assay [5] (read-out: IC50); “Not Active” in assay [6]. Besides, the Ki in assay [4] (read-out: Ki) turned out to be 0.00464 µM; in assay [5] (read-out: Ki), 0.00263 µM.
With `Nc1ccc2c3c(cccc13)C(=O)NC2=O`, the IC50 entry in assay [1], in assay [2] (cho), in assay [3], in assay [4] (cho-k1), in assay [5] (cho-k1) and in assay [6] was “Not Active” each time.
For the compound `CCN(CC)CCOCCC1=CCC2CC1C2(C)C` (centres undefined) [MYRTECAINE], the IC50 entry in assay [1], in assay [2] (cho), in assay [3], in assay [4] (cho-k1), in assay [5] (cho-k1) and in assay [6] was “Not Active” each time.
As to `CC(C)=CCC/C(C)=C/CO` [GERANIOL], the IC50 entry in assay [1], in assay [2] (cho), in assay [3], in assay [4] (cho-k1), in assay [5] (cho-k1) and in assay [6] was “Not Active” each time.
Regarding `CCCOc1ccc(C(=O)OCCN(CC)CC)cc1N` [PROPARACAINE], the 50% inhibitory concentration (IC50) entry in assay [1], in assay [2] (cho), in assay [3], in assay [4] (cho-k1), in assay [5] (cho-k1) and in assay [6] was “Not Active” each time.
Regarding `O=C(O)c1cccnc1Nc1cccc(C(F)(F)F)c1` [NIFLUMIC ACID], the IC50 result in assay [1], in assay [2] (cho), in assay [3], in assay [4] (cho-k1), in assay [5] (cho-k1) and in assay [6] was “Not Active” throughout.
Turning to `CN1[C@@H]2CC[C@H]1C[C@@H](OC(=O)C(CO)c1ccccc1)C2` (some centres undefined) [ATROPINE], the IC50 entry in assay [1], in assay [2] (cho), in assay [3], in assay [4] (cho-k1), in assay [5] (cho-k1) and in assay [6] was “Not Active” throughout.
Consider `C#CC1(O)CC[C@H]2[C@@H]3CCC4=CC(=O)CC[C@@H]4[C@H]3CC[C@@]21CC` (some centres undefined) [NORGESTREL], for which the IC50 result in assay [1], in assay [2] (cho), in assay [3], in assay [4] (cho-k1), in assay [5] (cho-k1) and in assay [6] was “Not Active” each time.
In the case of `CCCN(CCC)S(=O)(=O)c1ccc(C(=O)O)cc1` [PROBENECID], the IC50 entry in assay [1], in assay [2] (cho), in assay [3], in assay [4] (cho-k1), in assay [5] (cho-k1) and in assay [6] was “Not Active” throughout.
Regarding `O=C1CN=C(c2ccccc2Cl)c2cc([N+](=O)[O-])ccc2N1` [CLONAZEPAM], the IC50 result in assay [1], in assay [2] (cho), in assay [3], in assay [4] (cho-k1), in assay [5] (cho-k1) and in assay [6] was “Not Active” throughout.
As for `CC(C(=O)O)c1cccc(Oc2ccccc2)c1` (centres undefined) [FENOPROFEN], the IC50 entry in assay [1], in assay [2] (cho), in assay [3], in assay [4] (cho-k1), in assay [5] (cho-k1) and in assay [6] was “Not Active” each time.
For GENTAMICIN, the IC50 entry in assay [1], in assay [2] (cho), in assay [3], in assay [4] (cho-k1), in assay [5] (cho-k1) and in assay [6] was “Not Active” each time. The Ki result in assay [1], in assay [2] (cho), in assay [3], in assay [4] (cho-k1), in assay [5] (cho-k1) and in assay [6] was “Not Active” in each case.
`CC(=O)Oc1ccc(C(c2ccc(OC(C)=O)cc2)c2ccccn2)cc1` [BISACODYL]: the IC50 entry in assay [1], in assay [2] (cho), in assay [3], in assay [4] (cho-k1), in assay [5] (cho-k1) and in assay [6] was “Not Active” each time.
`C[C@@H]1O[C@@H](O[C@@H]2C=C3CC[C@@H]4[C@H](CC[C@]5(C)[C@@H](c6ccc(=O)oc6)CC[C@]45O)[C@@]3(C)CC2)[C@H](O)[C@H](O)[C@H]1O` [PROSCILLARIDIN]: the IC50 result in assay [1], in assay [2] (cho), in assay [3], in assay [4] (cho-k1), in assay [5] (cho-k1) and in assay [6] was “Not Active” throughout.
In the case of `C[C@@H]1C[C@H]2[C@@H]3CCC4=CC(=O)C=C[C@]4(C)[C@@]3(F)[C@@H](O)C[C@]2(C)[C@@]1(O)C(=O)CO` [DEXAMETHASONE], the IC50 result in assay [1], in assay [2] (cho), in assay [3], in assay [4] (cho-k1), in assay [5] (cho-k1) and in assay [6] was “Not Active” throughout.
Regarding `C[n+]1ccc(-c2cc[n+](C)cc2)cc1.[Cl-].[Cl-]` [PARAQUAT DICHLORIDE], the concentration for half-maximal inhibition (IC50) result in assay [1], in assay [2] (cho), in assay [3], in assay [4] (cho-k1), in assay [5] (cho-k1) and in assay [6] was “Not Active” in each case.
On to `Cc1cc2c(OCC(CNC(C)(C)C)OC(=O)c3ccccc3)cccc2[nH]1` (centres undefined) [BOPINDOLOL], for which the IC50 result is “Not Active” in assay [1]; 0.02 µM in assay [2] (read-out: IC50); “Not Active” in assay [3]; 0.267 µM in assay [4] (read-out: IC50); 1.52 µM in assay [5] (read-out: IC50); “Not Active” in assay [6]. The values for the Ki in assay [2] (read-out: Ki), in assay [4] (read-out: Ki) and in assay [5] (read-out: Ki) were 0.014 µM, 0.153 µM and 0.969 µM, respectively.
For the compound `Nc1ccn([C@@H]2O[C@H](CO)[C@@H](O)C2(F)F)c(=O)n1` [GEMCITABINE], the IC50 entry in assay [1], in assay [2] (cho), in assay [3], in assay [4] (cho-k1), in assay [5] (cho-k1) and in assay [6] was “Not Active” throughout.
